Experimental data published in patent US20050245466A1, “Use of topoisomerase inhibitors and heat shock protein 90 inhibitors for use in chemotherapy” (THE UNIVERSITY OF LIVERPOOL, priority 2002, published 2005).

Key:
E.coli MC4100 = test: Agar sensitivity plates, parental strain; assay type: cell-based; details: for zone of inhibition: parental strain MC4100
Description: (§1) 200 μl of an overnight culture of E.coli strains was spread over the surface of a LB plate. The plates were incubated for three hours at 37° C., and the discs (50 μl of drug) placed onto the plates that were then incubated at 37° C. overnight.
(§2) The plates were photographed the following day with Fluor-S™ Quantity 1 program and the results are illustrated in FIG. 18.
(§3) The inhibition of bacterial cell growth was assessed by examining the zones of inhibition around each disc containing the topo II inhibitor.

E.coli JGT11 (htpG null) = test: Agar sensitivity plates, htpG null mutant; assay type: cell-based
Description: as §1, §2, §3

[1] = MTD stated with the xenograft dosing; details: CD1 Nude, mouse, in vivo; mice
Description: Treatment with test agents was initiated when the mean individual tumour volume exceeded 1,000 mm^3. The mice were dosed at day 11 and day 22—([…] 10 mg/kg, VePesid 5 mg/kg, MTD […] 22 mg/kg (a non toxic form of 17AAG which can be tolerated at much higher doses) MTD VePesid 70 mg/kg.

HtpG = HtpG (Escherichia coli, UniProt P0A6Z3); details: in vitro; cited from earlier work
HtpG, sequence (P0A6Z3 whole entry): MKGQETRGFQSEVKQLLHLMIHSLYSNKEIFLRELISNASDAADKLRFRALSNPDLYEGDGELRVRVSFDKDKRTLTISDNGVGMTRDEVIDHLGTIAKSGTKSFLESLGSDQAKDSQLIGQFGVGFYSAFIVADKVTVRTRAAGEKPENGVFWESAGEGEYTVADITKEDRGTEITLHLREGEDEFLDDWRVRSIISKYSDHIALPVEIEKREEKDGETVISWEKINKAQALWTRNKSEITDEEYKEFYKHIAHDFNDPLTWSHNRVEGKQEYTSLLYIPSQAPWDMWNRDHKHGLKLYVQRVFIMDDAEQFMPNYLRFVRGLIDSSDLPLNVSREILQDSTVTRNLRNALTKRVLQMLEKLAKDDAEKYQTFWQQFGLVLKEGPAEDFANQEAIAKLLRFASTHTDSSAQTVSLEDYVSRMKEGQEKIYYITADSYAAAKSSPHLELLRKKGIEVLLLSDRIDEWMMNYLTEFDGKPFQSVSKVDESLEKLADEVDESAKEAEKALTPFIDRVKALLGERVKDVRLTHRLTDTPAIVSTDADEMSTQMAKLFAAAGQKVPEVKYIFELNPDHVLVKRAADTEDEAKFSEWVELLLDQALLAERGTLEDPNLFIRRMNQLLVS

O=C(O)c1cn(C2CC2)c2cc(N3CCNCC3)c(F)cc2c1=O [Ciprofloxacin]
inhibition of growth (zones of inhibition) (E.coli MC4100; MC4100, discs in the range of 0.6-0.01 μM): some inhibition of growth | zone of inhibition (E.coli MC4100; 0.025 μM): no zone of inhibition | zone of inhibition (E.coli MC4100; 0.1 μM): reduced zone of inhibition | effect on growth versus parental strain (FIG. 18) (E.coli JGT11 (htpG null); JGT11, even at concentrations as low as 0.01 μM): significantly greater effect | inhibition of growth (zones of inhibition) versus MC4100 (E.coli JGT11 (htpG null); htpG null mutant, discs in the range of 0.6-0.01 μM): increased inhibition

COC1=C2C[C@@H](C)C[C@H](OC)[C@H](O)[C@@H](C)/C=C(\C)[C@H](OC(N)=O)[C@@H](OC)/C=C\C=C(/C)C(=O)NC(=CC1=O)C2=O [Geldanamycin]
MTD [1]: 22 mg/kg | activity of HtpG (HtpG): inhibits

COc1cc([C@@H]2c3cc4c(cc3[C@@H](O[C@@H]3O[C@@H]5CO[C@@H](C)O[C@H]5[C@H](O)[C@H]3O)[C@H]3COC(=O)[C@H]23)OCO4)cc(OC)c1O [VePesid, Etoposide]
MTD [1]: 70 mg/kg
